In article PMC6136660 (Steroids, 2018):

Columns and labels:
growth and bone = tested on: growth and bone; parameters: method as in PMID 24014378; conditions: 30 mg/kg/day, pre-clinical models; cited from earlier work
[1] = tested on: white blood cells and subsets (lymphocytes, neutrophils, eosinophils); assay: Differential white blood cell counts (immune suppression), MAD; type: in vivo, human; conditions: for Eosinophils: mean; for Lymphocytes / Neutrophil cell counts / White blood cells counts: mean±SEM, in 10^9/L (unit assumed)
Procedure: A single dose of pharmacological glucocorticoids results in rapid changes in peripheral blood white cell counts, with increased neutrophils, and decreased lymphocytes. Increases of neutrophils are from release from peripheral tissues, whereas loss of lymphocytes is due to induction of apoptosis. Differential white blood cell counts were studied in all Phase 1 MAD subjects. […]
placebo. White blood cells and subsets (lymphocytes, neutrophils, eosinophils) were measured at screening, day -1, pre-dose on days 1-14, day 17, and at follow-up (recovery). Day 1 (pre-dose), Day 2 (24 hr after first dose), Day 14 and follow-up (recovery) time points are graphed […]

[2] = MAD 1.0 mg/kg, Day 1 predose, baseline
[3] = MAD 1.0 mg/kg, Day 17 (3 days after last dose)
[4] = MAD 1.0 mg/kg, Day 21 follow-up
[5] = MAD 1.0 mg/kg, Day -1, baseline
[6] = MAD 1.0 mg/kg, Screening, baseline
[7] = MAD 3.0 mg/kg, Day 1 predose, baseline
[8] = MAD 3.0 mg/kg, Day 17 (3 days after last dose)
[9] = MAD 3.0 mg/kg, Day 21 follow-up
[10] = MAD 3.0 mg/kg, Day -1, baseline
[11] = MAD 3.0 mg/kg, Screening, baseline

Q: For `C[C@@H]1C[C@H]2[C@@H]3CCC4=CC(=O)C=C[C@]4(C)C3=CC[C@]2(C)[C@@]1(O)C(=O)CO` [vamorolone], which “severe stunting of growth and osteopenia” value (growth and bone) is on record?
A: did not

Q: What about the Eosinophils [1, 2] of the same compound?
A: 0.17 10^9/L

Q: What about the Lymphocytes [1, 2] of the same compound?
A: 1.9 ± 0.4

Q: And the Neutrophil cell counts [1, 2]?
A: 2.8 ± 1.0

Q: And the “White blood cells counts” value [1, 2]?
A: 5.2 ± 1.0

Q: What about the Eosinophils ([1]; MAD 1.0 mg/kg, Day 2 predose) of the same compound?
A: 0.17 10^9/L

Q: What about the Lymphocytes ([1]; MAD 1.0 mg/kg, Day 2 predose) of the same compound?
A: 1.8 ± 0.3

Q: And the Neutrophil cell counts ([1]; MAD 1.0 mg/kg, Day 2 predose)?
A: 3.0 ± 0.9

Q: And the “White blood cells counts” value ([1]; MAD 1.0 mg/kg, Day 2 predose)?
A: 5.3 ± 0.9

Q: And the Eosinophils ([1]; MAD 1.0 mg/kg, Day 3 predose)?
A: 0.17 10^9/L

Q: What about the Lymphocytes ([1]; MAD 1.0 mg/kg, Day 3 predose) of the same compound?
A: 2.1 ± 0.2

Q: What about the Neutrophil cell counts ([1]; MAD 1.0 mg/kg, Day 3 predose) of the same compound?
A: 2.8 ± 0.8

Q: What about the “White blood cells counts” value ([1]; MAD 1.0 mg/kg, Day 3 predose) of the same compound?
A: 5.4 ± 0.8

Q: And the Eosinophils ([1]; MAD 1.0 mg/kg, Day 7 predose)?
A: 0.2 10^9/L

Q: And the Lymphocytes ([1]; MAD 1.0 mg/kg, Day 7 predose)?
A: 2.1 ± 0.3

Q: What about the Neutrophil cell counts ([1]; MAD 1.0 mg/kg, Day 7 predose) of the same compound?
A: 3.1 ± 0.9

Q: And the “White blood cells counts” value ([1]; MAD 1.0 mg/kg, Day 7 predose)?
A: 5.9 ± 0.7

Q: What about the Eosinophils ([1]; MAD 1.0 mg/kg, Day 12 predose) of the same compound?
A: 0.2 10^9/L

Q: What about the Lymphocytes ([1]; MAD 1.0 mg/kg, Day 12 predose) of the same compound?
A: 2.3 ± 0.3

Q: What about the Neutrophil cell counts ([1]; MAD 1.0 mg/kg, Day 12 predose) of the same compound?
A: 3.2 ± 1.0

Q: What about the “White blood cells counts” value ([1]; MAD 1.0 mg/kg, Day 12 predose) of the same compound?
A: 6.1 ± 0.9

Q: And the Eosinophils ([1]; MAD 1.0 mg/kg, Day 14 predose)?
A: 0.18 10^9/L

Q: And the Lymphocytes ([1]; MAD 1.0 mg/kg, Day 14 predose)?
A: 2.3 ± 0.2

Q: What about the Neutrophil cell counts ([1]; MAD 1.0 mg/kg, Day 14 predose) of the same compound?
A: 3.0 ± 1.0

Q: What about the “White blood cells counts” value ([1]; MAD 1.0 mg/kg, Day 14 predose) of the same compound?
A: 5.9 ± 0.9

Q: What about the Eosinophils [1, 3] of the same compound?
A: 0.17 10^9/L

Q: And the Lymphocytes [1, 3]?
A: 2.1 ± 0.4

Q: And the Neutrophil cell counts [1, 3]?
A: 3.0 ± 0.8

Q: What about the “White blood cells counts” value [1, 3] of the same compound?
A: 5.7 ± 0.6

Q: What about the Eosinophils [1, 4] of the same compound?
A: 0.15 10^9/L

Q: And the Lymphocytes [1, 4]?
A: 2.0 ± 0.2

Q: What about the Neutrophil cell counts [1, 4] of the same compound?
A: 3.0 ± 0.6

Q: What about the “White blood cells counts” value [1, 4] of the same compound?
A: 5.5 ± 0.7

Q: What about the Eosinophils [1, 5] of the same compound?
A: 0.18 10^9/L

Q: What about the Lymphocytes [1, 5] of the same compound?
A: 2.1 ± 0.5

Q: And the Neutrophil cell counts [1, 5]?
A: 2.8 ± 0.9

Q: What about the “White blood cells counts” value [1, 5] of the same compound?
A: 5.5 ± 0.8

Q: And the Eosinophils [1, 6]?
A: 0.13 10^9/L

Q: And the Lymphocytes [1, 6]?
A: 1.8 ± 0.5

Q: What about the Neutrophil cell counts [1, 6] of the same compound?
A: 3.6 ± 2.0

Q: And the “White blood cells counts” value [1, 6]?
A: 5.9 ± 2.2

Q: What about the Eosinophils [1, 7] of the same compound?
A: 0.23 10^9/L

Q: And the Lymphocytes [1, 7]?
A: 1.8 ± 0.6

Q: What about the Neutrophil cell counts [1, 7] of the same compound?
A: 3.4 ± 1.3

Q: And the “White blood cells counts” value [1, 7]?
A: 5.8 ± 2.0

Q: What about the Eosinophils ([1]; MAD 3.0 mg/kg, Day 2 predose) of the same compound?
A: 0.23 10^9/L

Q: What about the Lymphocytes ([1]; MAD 3.0 mg/kg, Day 2 predose) of the same compound?
A: 2.0 ± 0.4

Q: What about the Neutrophil cell counts ([1]; MAD 3.0 mg/kg, Day 2 predose) of the same compound?
A: 3.4 ± 1.2

Q: And the “White blood cells counts” value ([1]; MAD 3.0 mg/kg, Day 2 predose)?
A: 5.9 ± 1.5

Q: What about the Eosinophils ([1]; MAD 3.0 mg/kg, Day 3 predose) of the same compound?
A: 0.2 10^9/L

Q: What about the Lymphocytes ([1]; MAD 3.0 mg/kg, Day 3 predose) of the same compound?
A: 2.1 ± 0.7

Q: And the Neutrophil cell counts ([1]; MAD 3.0 mg/kg, Day 3 predose)?
A: 3.4 ± 1.4

Q: And the “White blood cells counts” value ([1]; MAD 3.0 mg/kg, Day 3 predose)?
A: 6.1 ± 2.2

Q: What about the Eosinophils ([1]; MAD 3.0 mg/kg, Day 7 predose) of the same compound?
A: 0.18 10^9/L

Q: And the Lymphocytes ([1]; MAD 3.0 mg/kg, Day 7 predose)?
A: 2.4 ± 0.8

Q: What about the Neutrophil cell counts ([1]; MAD 3.0 mg/kg, Day 7 predose) of the same compound?
A: 3.3 ± 0.9

Q: And the “White blood cells counts” value ([1]; MAD 3.0 mg/kg, Day 7 predose)?
A: 6.3 ± 2.0

Q: What about the Eosinophils ([1]; MAD 3.0 mg/kg, Day 12 predose) of the same compound?
A: 0.18 10^9/L

Q: What about the Lymphocytes ([1]; MAD 3.0 mg/kg, Day 12 predose) of the same compound?
A: 2.1 ± 0.7

Q: What about the Neutrophil cell counts ([1]; MAD 3.0 mg/kg, Day 12 predose) of the same compound?
A: 3.2 ± 1.1

Q: And the “White blood cells counts” value ([1]; MAD 3.0 mg/kg, Day 12 predose)?
A: 6.0 ± 2.0

Q: And the Eosinophils ([1]; MAD 3.0 mg/kg, Day 14 predose)?
A: 0.2 10^9/L

Q: What about the Lymphocytes ([1]; MAD 3.0 mg/kg, Day 14 predose) of the same compound?
A: 2.2 ± 0.6

Q: And the Neutrophil cell counts ([1]; MAD 3.0 mg/kg, Day 14 predose)?
A: 3.0 ± 1.1

Q: And the “White blood cells counts” value ([1]; MAD 3.0 mg/kg, Day 14 predose)?
A: 5.8 ± 1.8

Q: What about the Eosinophils [1, 8] of the same compound?
A: 0.17 10^9/L

Q: And the Lymphocytes [1, 8]?
A: 2.0 ± 0.5

Q: What about the Neutrophil cell counts [1, 8] of the same compound?
A: 4.0 ± 1.1

Q: And the “White blood cells counts” value [1, 8]?
A: 6.6 ± 1.6

Q: And the Eosinophils [1, 9]?
A: 0.18 10^9/L

Q: And the Lymphocytes [1, 9]?
A: 1.8 ± 0.6

Q: And the Neutrophil cell counts [1, 9]?
A: 3.9 ± 1.4

Q: What about the “White blood cells counts” value [1, 9] of the same compound?
A: 6.3 ± 1.6

Q: What about the Eosinophils [1, 10] of the same compound?
A: 0.2 10^9/L

Q: And the Lymphocytes [1, 10]?
A: 1.9 ± 0.6

Q: What about the Neutrophil cell counts [1, 10] of the same compound?
A: 3.5 ± 1.4

Q: And the “White blood cells counts” value [1, 10]?
A: 6.1 ± 1.9

Q: And the Eosinophils [1, 11]?
A: 0.18 10^9/L

Q: And the Lymphocytes [1, 11]?
A: 2.0 ± 1.0

Q: And the Neutrophil cell counts [1, 11]?
A: 3.5 ± 1.8

Q: And the “White blood cells counts” value [1, 11]?
A: 6.2 ± 2.9
